The results in this text go back to patent publication US12258360B2, “Compositions and methods for treatment of anticancer-drug resistant cancers” (THE GEORGE WASHINGTON UNIVERSITY, priority 2020, dated 2025).

Assay [1] deals with T1, And-1 (Homo sapiens, UniProt O75717).
T1 sequence (O75717 1-1129): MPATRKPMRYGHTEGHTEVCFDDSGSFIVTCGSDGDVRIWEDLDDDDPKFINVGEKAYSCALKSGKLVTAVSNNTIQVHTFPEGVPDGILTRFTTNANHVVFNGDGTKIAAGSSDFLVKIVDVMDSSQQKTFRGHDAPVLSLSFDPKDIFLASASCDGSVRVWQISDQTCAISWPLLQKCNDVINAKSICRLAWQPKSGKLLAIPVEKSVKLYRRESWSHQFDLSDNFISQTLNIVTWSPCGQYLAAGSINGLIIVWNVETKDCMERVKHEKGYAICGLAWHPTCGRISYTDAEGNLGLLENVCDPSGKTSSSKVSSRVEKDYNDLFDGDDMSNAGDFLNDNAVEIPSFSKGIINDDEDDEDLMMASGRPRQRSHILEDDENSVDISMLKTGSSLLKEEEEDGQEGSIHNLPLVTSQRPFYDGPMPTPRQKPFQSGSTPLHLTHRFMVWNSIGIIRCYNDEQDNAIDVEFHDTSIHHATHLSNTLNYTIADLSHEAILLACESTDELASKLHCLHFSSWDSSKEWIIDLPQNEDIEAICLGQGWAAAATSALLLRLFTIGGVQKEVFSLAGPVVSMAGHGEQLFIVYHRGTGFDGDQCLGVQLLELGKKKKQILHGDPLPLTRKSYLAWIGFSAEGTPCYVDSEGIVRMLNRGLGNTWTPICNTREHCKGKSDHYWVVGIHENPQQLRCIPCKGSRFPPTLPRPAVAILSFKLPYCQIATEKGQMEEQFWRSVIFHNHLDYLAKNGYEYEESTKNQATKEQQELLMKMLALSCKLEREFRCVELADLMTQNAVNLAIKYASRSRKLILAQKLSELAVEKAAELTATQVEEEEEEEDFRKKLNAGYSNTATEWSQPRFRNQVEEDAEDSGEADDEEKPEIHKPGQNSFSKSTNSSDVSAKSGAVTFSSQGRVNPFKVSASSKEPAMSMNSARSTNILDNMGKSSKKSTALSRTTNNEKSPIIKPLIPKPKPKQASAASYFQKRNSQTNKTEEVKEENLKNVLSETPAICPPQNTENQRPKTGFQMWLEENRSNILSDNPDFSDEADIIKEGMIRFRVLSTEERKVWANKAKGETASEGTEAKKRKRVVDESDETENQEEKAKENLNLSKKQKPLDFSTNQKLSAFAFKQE
The assay can be described thus: immunoprecipitation of And-1 and anti-ubiquitin immunoblot in IGROV1 cells. The format is cell-based. The arrangement: endogenous in cells; host or cells: IGROV1 CR. Here is the method:
IGROV1 cells were treated with CH3 in the absence and presence of the 26S proteasome inhibitor MG132 (Benzyl N-[(2S)-4-methyl-1-[[(2S)-4-methyl-1-[[(2S)-4-methyl-1-oxopentan-2-yl]amino]-1-oxopentan-2-yl]amino]-1-oxopentan-2-yl]carbamate). […] Protein degradation through the proteasome requires conjugation of one or more ubiquitin molecules to the target. To address whether And-1 was modified by ubiquitin in IGROV1 cells treated with CH3, And-1 protein was immunoprecipitated and probed with anti-ubiquitin antibody.
Background: Immunoblotting shows a protein as a band on a membrane.

Assay [2] deals with IGROV1 cells. The assay is described as follows: flow cytometry (FACS) of propidium-iodide stained IGROV1 cells. The assay is classed as cell-based, human. The note with it: 1 μM.
In assay [3] the test system is IGROV1 CR cells. The assay is described as follows: clonogenic assay, combination with cisplatin. The format is cell-based, human.
Experimental: Clonogenic survival assays were also performed. In brief, cells were seeded in 6-well dishes at a density of 500 cells per dish then treated with the cisplatin at the indicated concentrations (See FIGS. 23 and 24). Cells were then kept in the incubator for 10-14 days to allow colony formation. Colonies were visualized by crystal violet staining. Colonies with >50 cells were counted.
Assay [4] deals with T1, And-1. The assay can be described thus: fluorescent boron sensor DAHMI staining of live IGROV1 cells. The assay is classed as cell-based. The arrangement: endogenous in cells; host or cells: IGROV1 CR. The text has this:
Boron-containing compounds can be visualized using a fluorescent boron sensor DAHMI. To determine the binding specificity of CH3 to And-1, the distribution of CH3 in live cells was examined using DAHMI.

Consider `OB1OCc2cc(/C=C/c3ccc(Cl)c(Cl)c3)ccc21` [CH3], for which, in assay [1], the “ubiquitinated And-1 bands” value is reported as “increased”. For the same compound, the “percentage of cells in the S-phase” value in assay [2] was “reduced the percentage of cells in the S-phase”. Also, the “synergy with cisplatin on clonogenic capacity” value in assay [3] was “synergy with cisplatin to reduce clonogenic capacity”. Further, the “distribution of compound in live cells (DAHMI)” value in assay [4] was “detected in nuclei”.
